The values that follow come from BindingDB's records for patent US11504368 (Thomas Helledays Stiftelse FÖr Medicinsk Forskning, 2022).

One may read the IC50 as the point on the concentration scale where inhibition reaches its midpoint. High values mean weaker potency, low ones greater potency.

This assay concerns the target T1, Bifunctional methylenetetrahydrofolate dehydrogenase/cyclohydrolase, mitochondrial (Homo sapiens, UniProt P13995).
T1 sequence (P13995 whole entry): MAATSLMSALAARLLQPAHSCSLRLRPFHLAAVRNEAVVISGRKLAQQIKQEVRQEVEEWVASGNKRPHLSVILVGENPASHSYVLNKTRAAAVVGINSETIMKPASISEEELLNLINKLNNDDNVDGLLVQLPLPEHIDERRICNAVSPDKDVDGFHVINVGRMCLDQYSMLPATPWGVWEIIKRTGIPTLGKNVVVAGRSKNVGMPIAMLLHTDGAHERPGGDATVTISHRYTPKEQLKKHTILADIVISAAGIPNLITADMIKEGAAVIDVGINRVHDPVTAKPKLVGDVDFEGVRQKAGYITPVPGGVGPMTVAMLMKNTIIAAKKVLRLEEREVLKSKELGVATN
Briefly: Inhibition of MTHFD2. The method, then: DMSO was used as negative control. The serial dilution in DMSO, from compound DMSO stock solution, was created by dispensing from a 384-well low dead volume microplate (LP-0200, Labcyte) and a 384-well polypropylene microplate 2.0 (PP-0200, Labcyte). A total of 2.5 μL MTHFD2 was preincubated with compound or DMSO for 10 min. The enzymatic reaction was initiated by adding 2.5 μL folitixorin (F680350, Toronto Research Chemicals). For background control, 5 μL buffer was added to the well. […] The final concentrations of all reagents in a total assay volume of 5 μL per well were 50 mmol/L Tris-HCl at pH 8.0, 100 mmol/L NaCl, 5 mmol/L MgCl2, 25 mmol/L Na3PO4 at pH 8.0, 0.005% (v/v) Tween-20, and 2 mmol/L 2-mercaptoethanol. After 15 min reaction time, 5 μL NAD(P)H-Glo detection reagent (G9061 or G9062, Promega) was dispensed in all wells and the plate was incubated for 60 min. Luminescence was measured on a plate reader (Envision, PerkinElmer or Sense, Hidex). The light signal produced is proportional to the amount of NAD(P)H in the sample.

`Nc1nc(N)c(NC(=O)Nc2ccc(C(=O)N[C@@H](CCc3ccccc3)C(=O)O)nc2)c(=O)[nH]1` [US11504368, Example 14] showed an IC50 of 36 nM.
